Data on 19 compounds can be found in PubChem BioAssay AID248 (DTP/NCI, 2004).

The test has as its system L1210 leukemia ip in BDF1 mice, survival T/C. The test is described as follows: NCI In Vivo Anticancer Drug Screen. Data for tumor model L1210 Leukemia (intraperitoneal) in B6D2F1 (BDF1) mice. The settings on record: endpoint: mean survival time, higher = longer survival. In a few lines:
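Mice bearing the transplanted tumor received compound or vehicle. Survival of the treated group was divided by that of the vehicle-treated control group to give the ratio.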

Setting [1] is: dose: 100.0 mg/kg/injection, schedule: Q04DX003 (ip), vehicle: Klucel (hydroxypropylcellulose) (HPC).
[2] abbreviates: dose: 200.0 mg/kg/injection, schedule: Q04DX003 (ip), vehicle: Klucel (hydroxypropylcellulose) (HPC).
Where [3] appears, read: dose: 100.0 mg/kg/injection, schedule: Q01DX001 (ip), vehicle: Klucel (hydroxypropylcellulose) (HPC).
Where [4] appears, read: dose: 50.0 mg/kg/injection, schedule: Q01DX009 (ip), vehicle: saline with Tween-80.
The mark [5] stands for this setting: dose: 100.0 mg/kg/injection, schedule: Q01DX009 (ip), vehicle: saline with Tween-80.
Setting [6] is: dose: 200.0 mg/kg/injection, schedule: Q01DX009 (ip), vehicle: saline with Tween-80.
The mark [7] stands for this setting: dose: 400.0 mg/kg/injection, schedule: Q01DX009 (ip), vehicle: saline with Tween-80.
The mark [8] stands for this setting: dose: 100.0 mg/kg/injection, schedule: Q01DX001 (ip), vehicle: saline.
Setting [9] is: dose: 200.0 mg/kg/injection, schedule: Q01DX001 (ip), vehicle: saline.
The mark [10] stands for this setting: dose: 400.0 mg/kg/injection, schedule: Q01DX001 (ip), vehicle: saline.
[11] abbreviates: dose: 100.0 mg/kg/injection, schedule: Q04DX003 (ip), vehicle: saline with Tween-80.
The mark [12] stands for this setting: dose: 200.0 mg/kg/injection, schedule: Q04DX003 (ip), vehicle: saline with Tween-80.

SMILES strings stand for the structures. Values joined by “and” are separate entries in the source; they are usually repeats but may differ in a detail not shown here. Equal values may be shown once. Inconclusive results and toxic doses are left out.

On to `Cc1cccc(NC(=O)/C=N/O)c1C`, for which the T/C by setting is: under setting [1], 98 % of control; under setting [2], 98 % of control.
For the compound `CC/C=C(CC)/C(CC)=C(/CC)CO`, the T/C runs as follows: (dose: 100.0 mg/kg/injection, schedule: Q01DX001 (ip), vehicle: saline with Tween-80) 103 % of control; (dose: 200.0 mg/kg/injection, schedule: Q01DX001 (ip), vehicle: saline with Tween-80) 95 % of control; (dose: 400.0 mg/kg/injection, schedule: Q01DX001 (ip), vehicle: saline with Tween-80) 92 % of control.
With `COc1ccc(C[n+]2cc([O-])on2)cc1`, the T/C runs as follows: (dose: 12.5 mg/kg/injection, schedule: Q01DX001 (ip), vehicle: Klucel (hydroxypropylcellulose) (HPC)) 101 % of control; (dose: 12.5 mg/kg/injection, schedule: Q04DX003 (ip), vehicle: Klucel (hydroxypropylcellulose) (HPC)) 104 % of control; (dose: 25.0 mg/kg/injection, schedule: Q01DX001 (ip), vehicle: Klucel (hydroxypropylcellulose) (HPC)) 99 % of control; (dose: 25.0 mg/kg/injection, schedule: Q04DX003 (ip), vehicle: Klucel (hydroxypropylcellulose) (HPC)) 104 % of control; (dose: 28.75 mg/kg/injection, schedule: Q01DX009 (ip), vehicle: Klucel (hydroxypropylcellulose) (HPC)) 114 % of control; (dose: 50.0 mg/kg/injection, schedule: Q01DX001 (ip), vehicle: Klucel (hydroxypropylcellulose) (HPC)) 99 % of control. For the same compound, the T/C by setting is: (dose: 50.0 mg/kg/injection, schedule: Q04DX003 (ip), vehicle: Klucel (hydroxypropylcellulose) (HPC)) 104 % of control; (dose: 57.5 mg/kg/injection, schedule: Q01DX009 (ip), vehicle: Klucel (hydroxypropylcellulose) (HPC)) 103 % of control; (dose: 75.0 mg/kg/injection, schedule: Q04DX003 (ip), vehicle: other) 106 % of control; under setting [3], 102 % of control; (dose: 115.0 mg/kg/injection, schedule: Q01DX009 (ip), vehicle: Klucel (hydroxypropylcellulose) (HPC)) 120 % of control; (dose: 115.0 mg/kg/injection, schedule: Q04DX003 (ip), vehicle: other) 87 % of control. Further, the T/C (dose: 400.0 mg/kg/injection, schedule: Q01DX001 (ip), vehicle: Klucel (hydroxypropylcellulose) (HPC)) is 108 % of control.
On to `Cc1cc(OCCOC(=O)Nc2cccc(C(F)(F)F)c2)cc(C)c1Cl`, for which the T/C (dose: 25.0 mg/kg/injection, schedule: Q01DX009 (ip), vehicle: saline with Tween-80) was 102 % of control; the T/C under setting [4] is 102 % of control; the T/C under setting [5] is 98 % of control and 118 % of control; the T/C under setting [6] was 93 % of control; the T/C under setting [7] is 91 % of control.
`NC(Cc1nccn1Cc1ccccc1)C(=O)O` (stereo not given): the T/C (dose: 75.0 mg/kg/injection, schedule: Q04DX002 (ip), vehicle: saline with Tween-80) is 104 % of control; the T/C (dose: 150.0 mg/kg/injection, schedule: Q04DX002 (ip), vehicle: saline with Tween-80) was 112 % of control; the T/C (dose: 300.0 mg/kg/injection, schedule: Q04DX002 (ip), vehicle: saline with Tween-80) was 119 % of control.
Consider `O=C(CC1(O)C(=O)Nc2ccc(Br)cc21)c1ccc2c(c1)OCO2` (stereo not given), for which the T/C by setting is: (dose: 100.0 mg/kg/injection, schedule: Q04DX002 (ip), vehicle: Klucel (hydroxypropylcellulose) (HPC)) 92 % of control; (dose: 200.0 mg/kg/injection, schedule: Q04DX002 (ip), vehicle: Klucel (hydroxypropylcellulose) (HPC)) 104 % of control; (dose: 400.0 mg/kg/injection, schedule: Q04DX002 (ip), vehicle: Klucel (hydroxypropylcellulose) (HPC)) 95 % of control.
As to `CCOC(=O)C1(c2ccccc2)CCN(CCC(=O)c2ccc(F)cc2)CC1`, the T/C under setting [3] was 98 % of control and the T/C (dose: 200.0 mg/kg/injection, schedule: Q01DX001 (ip), vehicle: Klucel (hydroxypropylcellulose) (HPC)) was 95 % of control.
Regarding `CC1(N)COP(=O)(NC2CCCC2)OC1` (stereo not given), the T/C was 100 % of control under setting [8], 105 % of control under setting [9] and 91 % of control under setting [10].
As to `O=C(CCn1cccc1)c1csc2ccccc12`, the T/C runs as follows: (dose: 10.0 mg/kg/injection, schedule: Q01DX001 (ip), vehicle: carboxymethylcellulose (CMC)) 97 % of control; (dose: 20.0 mg/kg/injection, schedule: Q01DX001 (ip), vehicle: carboxymethylcellulose (CMC)) 98 % of control; (dose: 40.0 mg/kg/injection, schedule: Q01DX001 (ip), vehicle: carboxymethylcellulose (CMC)) 100 % of control; (dose: 80.0 mg/kg/injection, schedule: Q01DX001 (ip), vehicle: carboxymethylcellulose (CMC)) 100 % of control; (dose: 200.0 mg/kg/injection, schedule: Q01DX001 (ip), vehicle: carboxymethylcellulose (CMC)) 88 % of control.
With `O=S1(=O)CC(Cl)C(I)C1` (stereo not given), the T/C is 102 % of control under setting [5] and 109 % of control under setting [6].
For the compound `CCOC(=O)C1CN(S(=O)(=O)c2ccc(C)cc2)c2ccccc2C(=O)C1/C(=C/C(=O)OC)C(=O)OC` (stereo not given), the T/C by setting is: under setting [1], 96 % of control; under setting [2], 94 % of control; (dose: 400.0 mg/kg/injection, schedule: Q04DX003 (ip), vehicle: Klucel (hydroxypropylcellulose) (HPC)) 86 % of control.
On to `O=C(O)c1ccc(NC(Nc2ccc(C(=O)O)cc2)C(=O)c2ccccc2)cc1`, for which the T/C runs as follows: under setting [8], 95 % of control; under setting [9], 89 % of control; under setting [10], 101 % of control.
In the case of `O=C1NC(=S)N/C1=C/c1ccc2c(c1)CCC2`, the T/C was 112 % of control under setting [5]; 95 % of control under setting [11]; 94 % of control under setting [6]; 101 % of control under setting [12]; 102 % of control under setting [7]; 87 % of control (dose: 400.0 mg/kg/injection, schedule: Q04DX003 (ip), vehicle: saline with Tween-80).
In the case of `O=C(C(Sc1ccccc1)=P(c1ccccc1)(c1ccccc1)c1ccccc1)c1ccccc1`, the T/C by setting is: under setting [11], 90 % of control; under setting [12], 90 % of control.
For the compound `O=NN(CCCl)C(=O)Nc1ccc(SCC(=O)O)cc1`, the T/C is, setting by setting: (dose: 5.0 mg/kg/injection, schedule: Q01DX001 (ip), vehicle: carboxymethylcellulose (CMC)) 117 % of control; (dose: 18.0 mg/kg/injection, schedule: Q01DX001 (ip), vehicle: carboxymethylcellulose (CMC)) 161 % of control; (dose: 26.0 mg/kg/injection, schedule: Q01DX001 (ip), vehicle: carboxymethylcellulose (CMC)) 175 % of control.
Consider `CCCCOc1ccc(/C=N/NC(=O)CNC(=O)Nc2cccc([N+](=O)[O-])c2)cc1`, for which the T/C by setting is: under setting [4], 96 % of control; under setting [5], 96 % of control; under setting [6], 93 % of control.
Turning to `CCCCOC(=O)c1ccc(NC(=O)CCC(C)Cl)cc1` (stereo not given), the T/C by setting is: (dose: 100.0 mg/kg/injection, schedule: Q04DX003 (ip), vehicle: saline) 94 % of control; (dose: 200.0 mg/kg/injection, schedule: Q04DX003 (ip), vehicle: saline) 90 % of control; (dose: 400.0 mg/kg/injection, schedule: Q04DX003 (ip), vehicle: saline) 92 % of control.
On to `Cc1ccc(S(=O)(=O)NCCC(=O)O)cc1`, for which the T/C runs as follows: under setting [8], 93 % of control; under setting [9], 98 % of control; under setting [10], 98 % of control.
As for `OB(O)c1ccc(F)cc1`, the T/C was 101 % of control (dose: 100.0 mg/kg/injection, schedule: Q04DX003 (ip), vehicle: acetone); 98 % of control (dose: 200.0 mg/kg/injection, schedule: Q04DX003 (ip), vehicle: acetone); 97 % of control (dose: 400.0 mg/kg/injection, schedule: Q04DX003 (ip), vehicle: acetone).
